Data published in a compilation of properties of binary mixtures (doi:10.1016/j.molliq.2019.01.093).

Assay: xn = mol fraction of the nth substance listed
Conditions: 298.1 K, 100 kPa

CC[n+]1ccn(C)c1.F[B-](F)(F)F + CS(C)=O
Conditions	electrical conductivity [S/m]
x1 = 0.01	0.25
x1 = 0.017	0.69
x1 = 0.021	0.67
x1 = 0.032	1.04
x1 = 0.051	1.24
x1 = 0.066	1.53
x1 = 0.097	1.68
x1 = 0.15	1.84
x1 = 0.286	1.67
x1 = 0.483	1.48
x1 = 0.782	1.13
x1 = 1	0.91

CCOP(=O)([O-])OCC.CC[n+]1ccn(C)c1 + CS(C)=O
Conditions	electrical conductivity [S/m]
x1 = 0.006	0.1
x1 = 0.013	0.19
x1 = 0.04	0.48
x1 = 0.059	0.57
x1 = 0.074	0.62
x1 = 0.119	0.68
x1 = 0.169	0.64
x1 = 0.233	0.57
x1 = 0.32	0.5
x1 = 0.544	0.28

CC(=O)[O-].CC[n+]1ccn(C)c1 + CS(C)=O
Conditions	electrical conductivity [S/m]
x1 = 0.01	0.16
x1 = 0.029	0.48
x1 = 0.044	0.63
x1 = 0.055	0.73
x1 = 0.082	0.83
x1 = 0.165	1.04
x1 = 0.237	1.07
x1 = 0.313	1.01
x1 = 0.415	0.93
x1 = 0.513	0.81
x1 = 0.813	0.5
x1 = 1	0.38
